Literature values as cited in patent US20240374519A1, “COMPOSITIONS FOR SUPPLEMENTING PRODUCTS WITH THERAPEUTIC AGENTS AND METHODS OF USE THEREOF” (DISRUPTION LABS, INC., priority 2021, published 2024).

## C=C(C)[C@@H]1CCC(C)=C[C@H]1c1c(O)cc(CCCCC)cc1O [Cannabidiol]
  log P: > 5
